Experimental findings from patent US20090118274A1, “MONOCYCLIC AMINOPROPYL TETRAHYDRO-PYRAZOLO-PYRIDINE MODULATORS OF CATHEPSIN S” (priority 2007, published 2009) are described below.

Structures are written as SMILES.

The target in one test is T1, Recombinant human cathepsin S (CatS) (Homo sapiens, UniProt P25774).
T1 construct: made in house
T1 sequence (P25774 115-331): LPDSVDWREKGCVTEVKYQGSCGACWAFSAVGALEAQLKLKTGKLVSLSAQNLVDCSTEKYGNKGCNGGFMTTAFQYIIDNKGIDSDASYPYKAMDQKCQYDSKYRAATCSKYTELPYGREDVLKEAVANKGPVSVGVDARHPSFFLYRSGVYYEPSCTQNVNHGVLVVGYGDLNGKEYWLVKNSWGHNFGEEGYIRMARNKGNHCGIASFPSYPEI
The test can be described thus: Recombinant human cathepsin S (CatS) fluorogenic substrate inhibition assay. The format is biochemical.
Conditions: not given
As for the experimental part: Recombinant human cathepsin S (CatS) was expressed in the baculovirus system and purified in one step with a thiopropyl-sepharose column. […] The assay is run in 150 mM sodium acetate pH 5.0 containing 1.5 mM DTT and 150 mM NaCl. […] Measurements are taken every min for 20 min. The rate is calculated from the slope of the increase in fluorescence and the percent inhibition is calculated from this.
In general, IC50 refers to the concentration at which inhibition is half-maximal. As for `CS(=O)(=O)N1CCc2c(c(-c3ccc(C(F)(F)F)c(CNC(=O)Oc4ccc(F)cc4)c3)nn2CC(O)CN2CCCC2)C1` (stereo not shown) [Example 213, {5-[1-(2-Hydroxy-3-pyrrolidin-1-yl-propyl)-5-methanesulfonyl-4,5,6,7-tetrahydro-1H-pyrazolo[4,3-c]pyridin-3-yl]-2-trifluoromethyl-benzyl}-carbamic acid 4-fluoro-phenyl ester], the IC50 was 560 nM.
On the same count and under the same terms, with `CS(=O)(=O)N1CCc2c(c(-c3ccc(C(F)(F)F)c(CNC(=O)c4ccc(F)cc4)c3)nn2CC(O)CN2CCC(C(N)=O)CC2)C1` (stereo not shown) [Example 18, 1-[3-(3-[3-[(4-Fluoro-benzoylamino)-methyl]-4-trifluoromethyl-phenyl]-5-methanesulfonyl-4,5,6,7-tetrahydro-pyrazolo[4,3-c]pyridin-1-yl)-2-hydroxy-propyl]-piperidine-4-carboxylic acid amide] the figure was 70 nM.

Staying with this test, now noted: average of results obtained; substrate Z-Valine-Valine-Arginine-AMC 10 μM, pH 5.0; read-out: CatS IC50.
For the compound `CC(=O)NC1CCN(CC(O)Cn2nc(-c3ccc(C(F)(F)F)c(CNC(=O)c4ccc(F)cc4)c3)c3c2CCN(S(C)(=O)=O)C3)C1` (stereo not shown) [Example 93, N-(5-{1-[3-(3-Acetylamino-pyrrolidin-1-yl)-2-hydroxy-propyl]-5-methanesulfonyl-4,5,6,7-tetrahydro-1H-pyrazolo[4,3-c]pyridin-3-yl}-2-trifluoromethyl-benzyl)-4-fluoro-benzamide], the IC50 worked out at 170 nM.
As for `CN(C)C1CCN(CCCn2nc(-c3ccc(C(F)(F)F)c(CNC(=O)c4ccc(F)cc4)c3)c3c2CCN(S(C)(=O)=O)C3)C1` (stereo not shown) [Example 5, N-(5-{1-[3-(3-Dimethylamino-pyrrolidin-1-yl)-propyl]-5-methanesulfonyl-4,5,6,7-tetrahydro-1H-pyrazolo[4,3-c]pyridin-3-yl}-2-trifluoromethyl-benzyl)-4-fluoro-benzamide], the half-inhibitory concentration (IC50) amounted to 150 nM.
Same read-out and setting: with `CS(=O)(=O)N1CCc2c(c(-c3ccc(C(F)(F)F)c(CNC(=O)c4cccc(F)c4)c3)nn2CC(O)CN2CCCC2)C1` (stereo not shown) [Example 215, 3-Fluoro-N-{5-[1-(2-hydroxy-3-pyrrolidin-1-yl-propyl)-5-methanesulfonyl-4,5,6,7-tetrahydro-1H-pyrazolo[4,3-c]pyridin-3-yl]-2-trifluoromethyl-benzyl}-benzamide] the figure was 580 nM; with `CS(=O)(=O)N1CCc2c(c(-c3ccc(C(F)(F)F)c(CNC(=O)c4ccc(O)cc4)c3)nn2CC(O)CN2CCC3(CCNC3=O)CC2)C1` (stereo not shown) [Example 141, 4-Hydroxy-N-(5-{1-[2-hydroxy-3-(1-oxo-2,8-diaza-spiro[4.5]dec-8-yl)-propyl]-5-methanesulfonyl-4,5,6,7-tetrahydro-1H-pyrazolo[4,3-c]pyridin-3-yl}-2-trifluoromethyl-benzyl)-benzamide], 50 nM; with `CC(C)CC(=O)NCc1cc(-c2nn(CC(O)CN3CCCC3)c3c2CN(S(C)(=O)=O)CC3)ccc1C(F)(F)F` (stereo not shown) [Example 281, N-{5-[1-(2-Hydroxy-3-pyrrolidin-1-yl-propyl)-5-methanesulfonyl-4,5,6,7-tetrahydro-1H-pyrazolo[4,3-c]pyridin-3-yl]-2-trifluoromethyl-benzyl]-3-methyl-butyramide], 370 nM.
For `CS(=O)(=O)N1CCc2c(c(-c3ccc(C(F)(F)F)c(CNC(=O)C4CCCCC4)c3)nn2CC(O)CN2CCCC2)C1` (stereo not shown) [Example 168, Cyclohexanecarboxylic acid 5-[1-(2-hydroxy-3-pyrrolidin-1-yl-propyl)-5-methanesulfonyl-4,5,6,7-tetrahydro-1H-pyrazolo[4,3-c]pyridin-3-yl}-2-trifluoromethyl-benzylamide], the IC50 is 500 nM.
For `CC(=O)NC1CCN(CC(O)Cn2nc(-c3ccc(C(F)(F)F)c(CNC(=O)CC(C)C)c3)c3c2CCN(S(C)(=O)=O)C3)CC1` (stereo not shown) [Example 250, N-(5-{1-[3-(4-Acetylamino-piperidin-1-yl)-2-hydroxy-propyl]-5-methanesulfonyl-4,5,6,7-tetrahydro-1H-pyrazolo[4,3-c]pyridin-3-yl}-2-trifluoromethyl-benzyl)-3-methyl-butyramide], the concentration for half-maximal inhibition (IC50) turned out to be 50 nM.
Turning to `Cc1cc(C(=O)NCc2cc(-c3nn(CC(O)CN4CCCC4)c4c3CN(S(C)(=O)=O)CC4)ccc2C(F)(F)F)ccc1F` (stereo not shown) [Example 96, 4-Fluoro-N-{5-[1-(2-hydroxy-3-pyrrolidin-1-yl-propyl)-5-methanesulfonyl-4,5,6,7-tetrahydro-1H-pyrazolo[4,3-c]pyridin-3-yl]-2-trifluoromethyl-benzyl}-3-methyl-benzamide], the IC50 is 240 nM.
On to `CC(C)=CC(=O)NCc1cc(-c2nn(CC(O)CN3CCC(O)CC3)c3c2CN(S(C)(=O)=O)CC3)ccc1C(F)(F)F` (stereo not shown) [Example 154, 3-Methyl-but-2-enoic acid 5-{1-[2-hydroxy-3-(4-hydroxy-piperidin-1-yl)-propyl]-5-methanesulfonyl-4,5,6,7-tetrahydro-1H-pyrazolo[4,3-c]pyridin-3-yl}-2-trifluoromethyl-benzylamide], for which the IC50 is 90 nM.
In the case of `CS(=O)(=O)N1CCc2c(c(-c3ccc(C(F)(F)F)c(CNC(=O)c4ccc([N+](=O)[O-])cc4)c3)nn2CC(O)CN2CCCC2)C1` (stereo not shown) [Example 212, N-{5-[1-(2-Hydroxy-3-pyrrolidin-1-yl-propyl)-5-methanesulfonyl-4,5,6,7-tetrahydro-1H-pyrazolo[4,3-c]pyridin-3-yl]-2-trifluoromethyl-benzyl}-4-nitro-benzamide], the IC50 turned out to be 520 nM.
On the same count and under the same terms, with `Cc1nc2ccccc2c(=O)n1Cc1cc(-c2nn(CCCN3CCC4(CCNC4=O)CC3)c3c2CN(S(C)(=O)=O)CC3)ccc1C(F)(F)F` [Example 174, 3-(5-{5-Methanesulfonyl-1-[3-(1-oxo-2,8-diaza-spiro[4.5]dec-8-yl)-propyl]-4,5,6,7-tetrahydro-1H-pyrazolo[4,3-c]pyridin-3-yl}-2-trifluoromethyl-benzyl)-2-methyl-3H-quinazolin-4-one] the figure was 13500 nM; with `CC1(C)CCN(CCCn2nc(-c3ccc(C(F)(F)F)c(CNCc4ccc(F)cc4)c3)c3c2CCN(C(=O)CO)C3)CC1` [Example 297, 1-(1-[3-(4,4-Dimethyl-piperidin-1-yl)-propyl]-3-{3-[(4-fluoro-benzylamino)-methyl]-4-trifluoromethyl-phenyl}-1,4,6,7-tetrahydro-pyrazolo[4,3-c]pyridin-5-yl)-2-hydroxy-ethanone], 180 nM.
On the same count and under the same terms, the result for `CS(=O)(=O)N1CCc2c(c(-c3ccc(C(F)(F)F)c(CNC(=O)c4ccc(F)cc4)c3)nn2CC(O)CN2CC[C@@H](CO)C2)C1` (stereo partly drawn) [Example 95, (R)-4-Fluoro-N-(5-{1-[2-hydroxy-3-(3-hydroxymethyl-pyrrolidin-1-yl)-propyl]-5-methanesulfonyl-4,5,6,7-tetrahydro-1H-pyrazolo[4,3-c]pyridin-3-yl}-2-trifluoromethyl-benzyl)-benzamide] reads 230 nM; that for `CS(=O)(=O)N1CCc2c(c(-c3ccc(Cl)c(CNC(=O)c4ccccc4)c3)nn2CC(O)CN2CCCCC2)C1` (stereo not shown) [Example 231, N-{2-Chloro-5-[1-(2-hydroxy-3-piperidin-1-yl-propyl)-5-methanesulfonyl-4,5,6,7-tetrahydro-1H-pyrazolo[4,3-c]pyridin-3-yl]-benzyl}-benzamide], 800 nM; that for `CS(=O)(=O)N1CCc2c(c(-c3ccc(C(F)(F)F)c(CNC(=O)c4ccccc4Cl)c3)nn2CC(O)CN2CCCC2)C1` (stereo not shown) [Example 62, 2-Chloro-N-{5-[1-(2-hydroxy-3-pyrrolidin-1-yl-propyl)-5-methanesulfonyl-4,5,6,7-tetrahydro-1H-pyrazolo[4,3-c]pyridin-3-yl]-2-trifluoromethyl-benzyl}-benzamide], 220 nM.
`CC(C)(C)OC(=O)NC1CCN(CC(O)Cn2nc(-c3ccc(Cl)c(CNC(=O)c4ccc(F)cc4)c3)c3c2CCN(S(C)(=O)=O)C3)CC1` (stereo not shown) [Example 78, {1-[3-(3-{4-Chloro-3-[(4-fluoro-benzoylamino)-methyl]-phenyl}-5-methanesulfonyl-4,5,6,7-tetrahydro-pyrazolo[4,3-c]pyridin-1-yl)-2-hydroxy-propyl]-piperidin-4-yl}-carbamic acid tert-butyl ester]: the IC50 turned out to be 30 nM.
Regarding `CS(=O)(=O)N1CCc2c(c(-c3ccc(C(F)(F)F)c(CNC(=O)c4cc(Cl)cc(Cl)c4)c3)nn2CC(O)CN2CCCC2)C1` (stereo not shown) [Example 218, 3,5-Dichloro-N-{5-[1-(2-hydroxy-3-pyrrolidin-1-yl-propyl)-5-methanesulfonyl-4,5,6,7-tetrahydro-1H-pyrazolo[4,3-c]pyridin-3-yl]-2-trifluoromethyl-benzyl}-benzamide], the half-maximal inhibitory concentration (IC50) worked out at 610 nM.
In the case of `CS(=O)(=O)N1CCc2c(c(-c3ccc(C(F)(F)F)c(CNC(=O)c4ccc(Cl)cc4)c3)nn2CC(O)CN2CCCC2)C1` (stereo not shown) [Example 224, 4-Chloro-N-{5-[1-(2-hydroxy-3-pyrrolidin-1-yl-propyl)-5-methanesulfonyl-4,5,6,7-tetrahydro-1H-pyrazolo[4,3-c]pyridin-3-yl]-2-trifluoromethyl-benzyl}-benzamide], the IC50 worked out at 730 nM.
In the case of `CC(C)=CC(=O)NCc1cc(-c2nn(CC(O)CN3CCC(O)C3)c3c2CN(S(C)(=O)=O)CC3)ccc1C(F)(F)F` (stereo not shown) [Example 32, 3-Methyl-but-2-enoic acid 5-{1-[2-hydroxy-3-(3-hydroxy-pyrrolidin-1-yl)-propyl]-5-methanesulfonyl-4,5,6,7-tetrahydro-1H-pyrazolo[4,3-c]pyridin-3-yl}-2-trifluoromethyl-benzylamide], the IC50 worked out at 270 nM.
As for `CS(=O)(=O)N1CCc2c(c(-c3ccc(C(F)(F)F)c(CNC(=O)c4cc5ccccc5s4)c3)nn2CC(O)CN2CCC3(CCNC3=O)CC2)C1` (stereo not shown) [Example 157, Benzo[b]thiophene-2-carboxylic acid 5-{1-[2-hydroxy-3-(1-oxo-2,8-diaza-spiro[4.5]dec-8-yl)-propyl]-5-methanesulfonyl-4,5,6,7-tetrahydro-1H-pyrazolo[4,3-c]pyridin-3-yl}-2-trifluoromethyl-benzylamide], the 50% inhibitory concentration (IC50) turned out to be 270 nM.
